Data published in the supplement of paper PMC10307832.

Experiments:
Assay in all cases: relative viability (nuclei count vs DMSO), 5 days (fraction); higher = more cells survive
Shikonin + Pictilisib = compound: CC(C)=CC[C@@H](O)C1=CC(=O)c2c(O)ccc(O)c2C1=O [Shikonin] + CS(=O)(=O)N1CCN(Cc2cc3nc(-c4cccc5[nH]ncc45)nc(N4CCOCC4)c3s2)CC1 [Pictilisib] (partner 1 µM)
Method in brief: (§1)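 Relative viability was taken as the ratio of nuclei in treated wells to nuclei in vehicle wells. Lung cancer cell lines in 1536-well plates received compounds by pin tool one day after seeding, either one drug alone or a fixed anchor-drug dose plus five library-drug doses (not always all listed) in √10 steps. Nuclei were counted on 4× images after 5 days of treatment, and values are medians of duplicate plates.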

[1] = compound: CC(C)N(CCCNC(=O)Nc1ccc(C(C)(C)C)cc1)C[C@H]1O[C@@H](n2ccc3c(N)ncnc32)[C@H](O)[C@@H]1O + O=C(c1cc(Cc2n[nH]c(=O)c3ccccc23)ccc1F)N1CCN(C(=O)C2CC2)CC1 [Olaparib] (partner 8 µM)
Method in brief: as §1

Shikonin + Trametinib = compound: CC(C)=CC[C@@H](O)C1=CC(=O)c2c(O)ccc(O)c2C1=O [Shikonin] + CC(=O)Nc1cccc(-n2c(=O)n(C3CC3)c(=O)c3c(Nc4ccc(I)cc4F)n(C)c(=O)c(C)c32)c1 [Trametinib] (partner 0.02 µM)
Method in brief: as §1

[2] = compound: CC(C)N(CCCNC(=O)Nc1ccc(C(C)(C)C)cc1)C[C@H]1O[C@@H](n2ccc3c(N)ncnc32)[C@H](O)[C@@H]1O + CS(=O)(=O)CCNCc1ccc(-c2ccc3ncnc(Nc4ccc(OCc5cccc(F)c5)c(Cl)c4)c3c2)o1 [Lapatinib] (partner 2 µM)
Method in brief: as §1

UMC-11 showed a relative viability (Shikonin + Pictilisib; first compound 0.01 µM) of 0.736, a relative viability (Shikonin + Pictilisib; first compound 0.1 µM) of 0.999 and a relative viability (Shikonin + Pictilisib; first compound 0.3162 µM) of 0.76. For the same cell line, the relative viability (Shikonin + Pictilisib; first compound 1 µM) was 0.97, the relative viability ([1]; first compound 0.08 µM) was 0.407 and the relative viability ([1]; first compound 0.253 µM) was 0.447. The relative viability ([1]; first compound 0.8 µM) was 0.378, the relative viability ([1]; first compound 2.53 µM) was 0.327 and the relative viability ([1]; first compound 8 µM) was 0.323. It also gave a relative viability (Shikonin + Trametinib; first compound 0.01 µM) of 0.573, a relative viability (Shikonin + Trametinib; first compound 0.1 µM) of 0.802 and a relative viability (Shikonin + Trametinib; first compound 0.3162 µM) of 0.656. The relative viability (Shikonin + Trametinib; first compound 1 µM) was 0.793, the relative viability ([2]; first compound 0.08 µM) was 0.864 and the relative viability ([2]; first compound 0.253 µM) was 0.772. The relative viability ([2]; first compound 0.8 µM) was 0.846, the relative viability ([2]; first compound 2.53 µM) was 1.02 and the relative viability ([2]; first compound 8 µM) was 1.05.
